Measured values as given in publication PMC8069214, “Synthesis, Biological Evaluation, and Molecular Modeling of Aza-Crown Ethers” (Molecules, 2021).
Where a name gives a salt, the structure may show the parent alone. Read-outs that look alike come from different tables or passages of the source.

What was measured:
human neutrophils [1] = assay: Ca2+ mobilization assay, direct effect of compounds on [Ca2+]i; assay type: cell-based; conditions: Neutrophil; for Emax: % of the response induced by 5 nM fMLF, read-out: Efficacy (converted)
Description: We screened 24 aza- and diaza-crown ethers with adamantyl, adamantylalkyl, aminomethylbenzoyl, and ε-aminocaproyl substituents for their Ca^2+ ionophore effects in human neutrophils. To monitor cytoplasmic Ca^2+ levels, we used the fluorescent Ca^2+ indicator Fluo-4, which is a dynamic single-wavelength fluorescent Ca^2+ indicator. Increases in fluorescence intensity (λex = 485 nm, λem = 538 nm) reflect the rise in cytoplasmic Ca^2+ concentrations ([Ca^2+]i; see Materials and Methods).
(§1) Changes in neutrophil intracellular Ca^2+ concentrations ([Ca^2+]i) were measured with a FlexStation 3 scanning fluorometer (Molecular Devices, Sunnyvale, CA, USA). Briefly, human neutrophils were suspended in HBSS^−, loaded with Fluo-4AM at a final concentration of 1.25 μg/mL, and incubated for 30 min in the dark at 37 °C. After dye loading, the cells were washed with HBSS^−, resuspended in HBSS^+, separated into aliquots, and loaded into the wells of flat-bottom, half-area well black microtiter plates (2 × 10^5 cells/well). To assess the direct effects of test compounds on Ca^2+ flux, the compounds were added to the wells (final concentration of DMSO was 1%), and changes in fluorescence were monitored (λex = 485 nm, λem = 538 nm) every 5 s for 240 s at room temperature after addition of the test compound. To evaluate inhibitory effects of the compounds on FPR1/FPR2-dependent Ca^2+ flux, the compounds were added to the wells (final concentration of DMSO was 1%) with cells (human neutrophils or FPR1/FPR2 HL60 cells). The samples were preincubated for 10 min, followed by addition of 5 nM fMLF (for human neutrophils or FPR1-HL60 cells) or 5 nM WKYMVM (for FPR2-HL60 cells). The maximum change in fluorescence, expressed in arbitrary units over baseline, was used to determine the agonist response. Responses were normalized to the response induced by 5 nM fMLF or 5 nM WKYMVM, which were assigned as 100%. Curve fitting (at least five or six points) and calculation of median effective concentration values (EC50 or IC50) were performed by nonlinear regression analysis of the dose–response curves generated using Prism 7 (GraphPad Software, Inc., San Diego, CA, USA). Efficacy was determined by comparing individual responses activated by the test compounds to that induced by a positive control (5 nM fMLF), which was assigned a value of 100%.

human neutrophils [2] = assay: Inhibition of fMLF-induced [Ca2+]i flux in human neutrophils; assay type: cell-based; conditions: Neutrophil, 10 min preincubation, 5 nM fMLF, N.A. = no activity at < 50 µM, read-out: FPR1/FPR2 Agonist-Induced Δ[Ca^2+]i Neutrophils IC50
Experimental: (§2) Since these compounds elevated neutrophil [Ca^2+]i, and cytosolic Ca^2+ flux is a key component of neutrophil activation, we evaluated if they could alter neutrophil activation by FPR1 or FPR2 agonists. Neutrophils and FPR-transfected HL60 cells were preincubated for 10 min with crown ether compounds, and [Ca^2+]i flux was stimulated with either an FPR1 agonist (fMLF for human neutrophils and FPR1-HL60 cells) or an FPR2 agonist (WKYMVM for FPR2-HL60 cells).
as §1

human neutrophils [3] = assay: fMLF-induced neutrophil chemotaxis (ChemoTx chambers); assay type: cell-based; conditions: 1 h, 1 nM fMLF, 60 min migration
Experimental: Human neutrophils were suspended in HBSS^+ containing 2% (v/v) heat-inactivated fetal bovine serum (2 × 10^6 cells/mL), and effects of the compounds on fMLF-induced chemotaxis was analyzed in 96-well ChemoTx chemotaxis chambers (Neuroprobe, Gaithersburg, MD, USA). In brief, neutrophils were preincubated with the indicated concentrations of the test compounds or DMSO for 20 min at room temperature and added to the upper wells of the ChemoTx chemotaxis chambers. The lower wells were loaded with 30 µL of HBSS^+ containing 2% (v/v) fetal bovine serum and the indicated concentrations of test sample plus 1 nM fMLF, DMSO (negative control), or 1 nM fMLF as a positive control. Neutrophils were added to the upper wells and allowed to migrate through the 5.0-µm pore polycarbonate membrane filter for 60 min at 37 °C and 5% CO2. The number of migrated cells was determined by measuring ATP in lysates of transmigrated cells using a luminescence-based assay (CellTiter-Glo; Promega, Madison, WI, USA), and luminescence measurements were converted to absolute cell numbers by comparison of the values with standard curves obtained with known numbers of neutrophils. Curve fitting (at least eight to nine points) and calculation of median effective concentration values (IC50) were performed by nonlinear regression analysis of the dose-response curves generated using Prism 5.

FPR1 = biological target: T1, FPR1 (Homo sapiens, UniProt P21462); assay: Inhibition of fMLF-induced [Ca2+]i flux in FPR1-HL60 cells; assay type: cell-based; conditions: 10 min preincubation, 5 nM fMLF; N.A. = no activity at < 50 µM; read-out: FPR1/FPR2 Agonist-Induced Δ[Ca^2+]i FPR1-HL60 IC50
T1 construct: expressed in transfected cells
T1 sequence (P21462 1-350): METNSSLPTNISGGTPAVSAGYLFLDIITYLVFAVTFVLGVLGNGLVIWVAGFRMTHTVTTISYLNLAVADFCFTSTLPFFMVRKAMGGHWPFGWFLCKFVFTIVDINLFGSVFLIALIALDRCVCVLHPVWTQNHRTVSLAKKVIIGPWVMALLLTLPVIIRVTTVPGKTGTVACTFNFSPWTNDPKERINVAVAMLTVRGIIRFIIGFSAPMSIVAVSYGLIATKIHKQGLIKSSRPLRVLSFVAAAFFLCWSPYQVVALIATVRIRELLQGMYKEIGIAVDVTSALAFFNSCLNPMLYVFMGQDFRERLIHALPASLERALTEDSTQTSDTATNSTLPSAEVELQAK
Experimental: as §2
(§3) Human promyelocytic leukemia HL60 cells stably transfected with FPR1 (FPR1-HL60 cells) or FPR2 (FPR2-HL60 cells) (kind gifts from Dr. Marie-Josephe Rabiet, INSERM, Grenoble, France) were cultured in RPMI 1640 medium supplemented with 10% heat-inactivated fetal calf serum, 10 mM HEPES, 100 μg/mL streptomycin, 100 U/mL penicillin, and G418 (1 mg/mL). Although stable cell lines are cultured under G418 selection pressure, G418 may affect some assays, so it was removed in the last round of culture before assays were performed.
as §1

FPR2 = biological target: T2, FPR2 (Homo sapiens, UniProt P25090); assay: Inhibition of WKYMVM-induced [Ca2+]i flux in FPR2-HL60 cells; assay type: cell-based; conditions: 10 min preincubation, 5 nM WKYMVM; N.A. = no activity at < 50 µM; read-out: FPR1/FPR2 Agonist-Induced Δ[Ca^2+]i FPR2-HL60 IC50
T2 construct: expressed in transfected cells
T2 sequence (P25090 1-351): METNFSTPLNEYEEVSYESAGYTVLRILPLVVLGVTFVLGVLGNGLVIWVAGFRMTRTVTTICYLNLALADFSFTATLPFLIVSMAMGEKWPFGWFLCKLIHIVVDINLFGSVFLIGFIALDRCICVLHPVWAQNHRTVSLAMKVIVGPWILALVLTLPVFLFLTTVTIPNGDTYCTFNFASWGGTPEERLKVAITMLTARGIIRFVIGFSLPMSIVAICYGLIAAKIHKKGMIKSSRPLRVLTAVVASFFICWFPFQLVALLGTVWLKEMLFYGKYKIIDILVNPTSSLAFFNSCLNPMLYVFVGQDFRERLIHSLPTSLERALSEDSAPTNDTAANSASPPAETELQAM
Experimental: as §2, §3, §1

human neutrophils [4] = assay: PMA-induced ROS production (L-012 chemiluminescence); assay type: cell-based; conditions: Neutrophil, 200 nM PMA, N.A. = no activity at < 50 µM
Description: To evaluate if the crown ethers could also disrupt GPCR-independent functional activity, we evaluated the effects of these compounds on phorbol 12-myristate 13-acetate (PMA)-stimulated reactive oxygen species (ROS) production. […] A representative concentration-dependent response for the inhibition of PMA-stimulated neutrophil ROS production by compound 15 is shown in Figure 2B. Since ROS production in neutrophils also requires increased [Ca^2+]i, the results again confirm that the impact of these compounds on Ca^2+ flux kinetics can alter neutrophil function.
ROS production was determined by monitoring L-012-enhanced chemiluminescence, which represents a sensitive and reliable method for detecting superoxide anion (O2^−.) production. Human neutrophils were resuspended at 2 × 10^5 cells/mL in HBSS^+ supplemented with 40 µM L-012. Cells (100 µL) were aliquoted into wells of 96-well flat-bottomed microtiter plates containing test compounds at different concentrations (final DMSO concentration of 1%). Cells were preincubated for 10 min, and 200 nM PMA was added to each well to stimulate ROS production. Luminescence was monitored for 120 min (2-min intervals) at 37 °C using a Fluroscan Ascent FL microtiter plate reader (Thermo Electron, Waltham, MA, USA). The curve of light intensity (in relative luminescence units) was plotted against time, and the area under the curve was calculated as total luminescence. The compound concentration that inhibited ROS production by 50% of the PMA-induced response (positive control) was determined by graphing the percentage inhibition of ROS production versus the logarithm of concentration of test sample (IC50). Each curve was determined using five to seven concentrations.

[5] = Homo sapiens, elevation of [Ca2+]i, Fluo-4, N.A. = no activity was found at concentration < 50 µM, read-out: EC50, effect on [Ca^2+]i flux in human neutrophils
[6] = reciprocal of EC50 in human neutrophils, inactive compounds assigned zero, read-out: 1/[EC50] (converted)

Compound	EC50 (human neutrophils [1]; [5])	EC50 (human neutrophils [1]; [6])	IC50 (human neutrophils [2])	IC50 (human neutrophils [3])	IC50 (FPR1)	melting point	IC50 (FPR2)	IC50 (human neutrophils [4])	Emax (human neutrophils [1]; Homo sapiens)
O=C(CC12CC3CC(CC(C3)C1)C2)N1CCOCCOCCOCCOCC1 [Compound 8, N-[2-(1-adamantyl)acetyl]aza-15-crown-5]	22.4 ± 4.3 µM	22.4 µM	2.6 ± 0.4 µM	13.2 ± 3.8 µM	37.1 ± 4.8 µM	–	–	–	–
O=C(NC1CCCCC1)C12CC3CC(CC(C3)C1)C2 [Compound 4, N-cyclohexyladamantane-1-carboxamide]	–	–	–	–	–	174 to 176 °C	–	–	–
O=C(CC12CC3CC(CC(C3)C1)C2)NC12CC3CC(CC(C3)C1)C2 [Compound 3, N,2-di(1-adamantyl)acetamide]	–	–	–	–	–	242 to 244 °C	–	–	–
O=C(N1CCOCCOc2ccccc2OCCOCC1)C12CC3CC(CC(C3)C1)C2 [Compound 10, N-[1-Oxo-1-(1-adamantyl)methyl]benzoaza-15-crown-5]	9.7 ± 2.6 µM	9.7 µM	11.2 ± 2.7 µM	–	12.2 ± 1.9 µM	111 to 113 °C	36.4 ± 5.6 µM	–	25 to 50%
O=C(NC12CC3CC(CC(C3)C1)C2)C12CC3CC(CC(C3)C1)C2 [Compound 2, N-(1-adamantyl)adamantane-1-carboxamide]	–	–	–	–	–	255 to 257 °C	–	–	–

The next lines start with results.

EC50 (human neutrophils [1]; [5])	EC50 (human neutrophils [1]; [6])	IC50 (human neutrophils [2])	IC50 (human neutrophils [3])	IC50 (FPR1)	melting point	IC50 (FPR2)	IC50 (human neutrophils [4])	Compound	Emax (human neutrophils [1]; Homo sapiens)
23.8 ± 7.6 µM	23.8 µM	4 ± 1.4 µM	15.7 ± 4.2 µM	–	–	–	–	O=C(N1CCOCCN(C(=O)C23CC4CC(CC(C4)C2)C3)CCOCC1)C12CC3CC(CC(C3)C1)C2 [Compound 12, N,N’-bis[1-oxo-1-(1-adamantyl)methyl]-4,10-diaza-12-crown-4]	25 to 50%
–	–	–	–	–	114 to 118 °C	–	–	NCCCCCC(=O)N1CCOCCOCCN(C(=O)CCCCCN)CCOCC1 (as salt: hydrochloride) [Compound 22, N,N’-bis(6-aminohexanoyl)-4,10-diaza-15-crown-5 dihydrochloride]	–
11.3 ± 3.1 µM	11.3 µM	10.2 ± 2.6 µM	–	9.6 ± 2.1 µM	–	28.2 ± 2.6 µM	15.3 ± 1.8 µM	C1COCCN(CCC23CC4CC(CC(C4)C2)C3)CCOCCOCCN(CCC23CC4CC(CC(C4)C2)C3)CCO1 [Compound 21, N,N’-bis[2-(1-adamantyl)ethyl]-4,13-diaza-18-crown-6]	25 to 50%
–	–	–	–	–	74 to 78 °C	–	–	C1COCCN(CC23CC4CC(CC(C4)C2)C3)CCOCCN(CC23CC4CC(CC(C4)C2)C3)CCO1 [Compound 19, N,N’-bis[(1-adamantyl)methyl]-4,10-diaza-15-crown-5]	–
15.6 ± 4.4 µM	15.6 µM	9.4 ± 0.6 µM	12.8 ± 5.3 µM	–	141 to 142 °C	29.1 ± 3.2 µM	–	O=C(CC12CC3CC(CC(C3)C1)C2)N1CCOCCOc2ccccc2OCCOCC1 [Compound 11, N-[2-(1-adamantyl)acetyl]benzoaza-15-crown-5]	25 to 50%
15.7 ± 3.8 µM	15.7 µM	3.4 ± 0.8 µM	5.3 ± 0.4 µM	7.3 ± 2.6 µM	–	30.7 ± 6.4 µM	–	O=C(N1CCOCCOCCN(C(=O)C23CC4CC(CC(C4)C2)C3)CCOCCOCC1)C12CC3CC(CC(C3)C1)C2 [Compound 16, N,N’-bis[1-oxo-1-(1-adamantyl)methyl]-4,13-diaza-18-crown-6]	25 to 50%
